Test results reported in US7713994B2 (Wyeth LLC, priority 2005, dated 2010).
Where two headings read alike, the source gives them in different places.

Assays:
cyclin D1/cdk 4 enzyme = target: T1, cyclin D1/cdk 4 enzyme (Homo sapiens, UniProt P11802); experiment: CDK4 ELISA kinase assay (phospho-Rb ser 795 detection); type: biochemical; settings: 200 μM ATP
T1 construct: made in house; host or cells: Sf9 insect cells, recombinant baculovirus
Method in brief: (§1)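 GST-Rb C-terminal fragment coated on wells; kinase reaction: 200 μM ATP, 0.5 mg/ml BSA, HEPES pH 7.5, 10 mM MgCl2, baculovirus/Sf9 cyclin-CDK, 30° C, 1 h. Readout anti-phospho-Rb Ser795, HRP, TMB, A450. Test compound 10 ug/ml final.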

cyclin E/CDK2 enzyme = target: T2, cyclin E/CDK2 enzyme (Homo sapiens, UniProt P24941); experiment: CDK2 ELISA kinase assay (phospho-Rb ser 795 detection); type: biochemical
T2 construct: made in house; host or cells: Sf9 insect cells, recombinant baculovirus
Method in brief: as §1

cyclin B/CDK1 enzyme = target: T3, cyclin B/CDK1 enzyme (Homo sapiens, UniProt P06493); experiment: CDK1 ELISA kinase assay (phospho-Rb ser 795 detection); type: biochemical
T3 construct: purchased New England BioLabs; host or cells: Sf9 insect cells, recombinant baculovirus
Method in brief: as §1

BT474 = experiment: Cytotoxicity assay (SRB), BT474; type: cell-based; settings: Homo sapiens, BT-474, 144 h, read-out: In Vitro Cellular Activity IC50 BT474
Method in brief: (§2)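 Protein staining with sulforhodamine B after cold TCA fixation served as the survival endpoint (A540, relative to untreated cells). Before staining, cells were incubated with compound at 37 °C, 7% CO2 for 3 days, or 6 days for BT474.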

HCT-116 = experiment: Cytotoxicity assay (SRB), HCT-116; type: cell-based; settings: Homo sapiens, HCT-116, 72 h, read-out: In Vitro Cellular Activity IC50 HCT116
Method in brief: as §2

LoVo = experiment: Cytotoxicity assay (SRB), LoVo; type: cell-based; settings: Homo sapiens, LoVo, 72 h, read-out: In Vitro Cellular Activity IC50 LOVO
Method in brief: as §2

MCF-7 = experiment: Cytotoxicity assay (SRB), MCF-7; type: cell-based; settings: Homo sapiens, MCF7, 72 h, read-out: In Vitro Cellular Activity IC50 MCF-7
Method in brief: as §2

[1] = In Vitro Enzyme Assays, read-out: CDK4 IC50
[2] = In Vitro Enzyme Assays, read-out: CDK2 IC50
[3] = In Vitro Enzyme Assays, read-out: CDK1 IC50
[4] = In Vitro Enzyme Assay, cyclin E/CDK2, read-out: CDK2 IC50

T1 sequence (P11802 whole entry, species assumed): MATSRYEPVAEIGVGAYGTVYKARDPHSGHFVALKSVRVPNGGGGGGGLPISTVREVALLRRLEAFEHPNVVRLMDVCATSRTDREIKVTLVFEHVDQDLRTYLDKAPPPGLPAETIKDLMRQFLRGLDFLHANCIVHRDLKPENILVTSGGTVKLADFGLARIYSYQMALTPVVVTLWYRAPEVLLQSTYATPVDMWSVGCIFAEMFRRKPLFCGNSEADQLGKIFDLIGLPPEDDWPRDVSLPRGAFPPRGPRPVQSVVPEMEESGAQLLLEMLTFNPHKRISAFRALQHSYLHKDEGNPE
T1 sequence (P24385 whole entry partner, species assumed): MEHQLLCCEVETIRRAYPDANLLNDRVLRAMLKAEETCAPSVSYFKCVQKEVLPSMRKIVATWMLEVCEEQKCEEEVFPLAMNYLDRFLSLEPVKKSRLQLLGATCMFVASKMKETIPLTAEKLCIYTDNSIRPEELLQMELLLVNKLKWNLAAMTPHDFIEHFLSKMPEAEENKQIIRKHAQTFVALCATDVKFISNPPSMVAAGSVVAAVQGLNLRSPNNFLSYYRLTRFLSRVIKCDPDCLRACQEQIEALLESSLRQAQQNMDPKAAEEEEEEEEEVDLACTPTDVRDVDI
T3 sequence (P06493 whole entry): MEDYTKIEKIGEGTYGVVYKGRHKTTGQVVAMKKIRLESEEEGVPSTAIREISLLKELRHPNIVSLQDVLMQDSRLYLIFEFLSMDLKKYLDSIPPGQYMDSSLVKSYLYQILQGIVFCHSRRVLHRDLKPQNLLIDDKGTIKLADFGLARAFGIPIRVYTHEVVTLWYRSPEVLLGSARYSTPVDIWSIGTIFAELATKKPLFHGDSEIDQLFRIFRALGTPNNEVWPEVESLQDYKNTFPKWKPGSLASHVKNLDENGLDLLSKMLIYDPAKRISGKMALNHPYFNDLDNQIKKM
T3 sequence (P14635 whole entry partner): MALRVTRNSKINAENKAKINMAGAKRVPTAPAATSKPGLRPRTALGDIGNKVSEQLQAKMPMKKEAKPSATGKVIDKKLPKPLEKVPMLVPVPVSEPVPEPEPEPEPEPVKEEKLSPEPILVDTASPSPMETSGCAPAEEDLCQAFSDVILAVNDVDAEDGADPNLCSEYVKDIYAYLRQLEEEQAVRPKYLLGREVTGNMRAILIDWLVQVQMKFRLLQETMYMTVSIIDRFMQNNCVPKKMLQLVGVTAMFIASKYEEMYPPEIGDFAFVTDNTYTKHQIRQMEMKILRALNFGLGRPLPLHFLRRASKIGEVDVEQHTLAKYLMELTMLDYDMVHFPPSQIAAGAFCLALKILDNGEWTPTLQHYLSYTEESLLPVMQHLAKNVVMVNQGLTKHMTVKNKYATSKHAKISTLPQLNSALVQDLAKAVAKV

Row | SMILES | IC50 (cyclin D1/cdk 4 enzyme; [1]) [µM] | IC50 (cyclin E/CDK2 enzyme; [2]) [µM] | IC50 (cyclin B/CDK1 enzyme; [3]) [µM] | melting point | also measured
1 | COc1cc2c(cc1OC)/C(=C/Nc1ccc(N3CCN(C)CC3)cc1)C(=O)NC2=O [Example 37, (4Z)-6,7-Dimethoxy-4-({[4-(-methylpiperazin-1-yl)phenyl}amino)methylene] isoquinolin-1,3(2H,4H)-dione] | 14.8 | > 50 | > 50 | 273 to 274 °C | –
2 | CC(=O)Nc1ccc2c(c1)/C(=C/Nc1ccc(CN3CCCCC3)cc1)C(=O)NC2=O [Example 48] | – | 8.1 | > 50 | > 320 °C | –
3 | CN1CCN(c2ccc(N/C=C3\C(=O)NC(=O)c4ccc(C(=O)N(C)C)cc43)cc2)CC1 [Example 65, (4Z)-N,N-Dimethyl-4-({[4-(4-methylpiperazin-1-yl)phenyl]amino}methylene)-1,3-dioxo-1,2,3,4-tetrahydroisoquinoline-6-carboxamide] | 41 | 47 | > 50 | > 300 °C | –
4 | CCN(CC)C(=O)Oc1cc(CN/C=C2\C(=O)NC(=O)c3ccc(I)cc32)ccc1OC [Example 99, 5-({[(Z)-(6-Iodo-1,3-dioxo-2,3-dihydroisoquinolin-4(1H)-ylidene)methyl]amino}methyl)-2-methoxyphenyl diethylcarbamate] | – | – | – | 128 to 130 °C | IC50 (cyclin D1/cdk 4 enzyme; CDK4 IC50, In Vitro Enzyme Assays): 1.4 µM; IC50 (cyclin E/CDK2 enzyme; CDK2 IC50, In Vitro Enzyme Assays): > 50 µM; IC50 (cyclin B/CDK1 enzyme; CDK1 IC50, In Vitro Enzyme Assays): > 50 µM
5 | CC(C)(C)c1ccc2c(c1)/C(=C/NCc1cc(O)c(-c3ccoc3)cn1)C(=O)NC2=O [Example 532, 6-tert-Butyl-4-{[(5-furan-3-yl-4-hydroxy-pyridin-2-ylmethyl)-amino]-methylene}-4H-isoquinoline-1,3-dione] | – | – | – | 215 to 230 °C (dec.) | IC50 (cyclin E/CDK2 enzyme; [4]): 1.9 µM; IC50 (BT474): 0.1 µM; IC50 (HCT-116): 0.48 µM; IC50 (LoVo): 0.27 µM; IC50 (MCF-7): 1.4 µM
6 | O=C1NC(=O)c2ccc(C3CCCC3)cc2/C1=C/NCc1cc(O)c(-c2ccoc2)cn1 [Example 537] | – | – | – | 279 to 283 °C (dec.) | IC50 (cyclin E/CDK2 enzyme; [4]): 1.3 µM; IC50 (BT474): 0.13 µM; IC50 (HCT-116): 0.81 µM; IC50 (LoVo): 0.3 µM; IC50 (MCF-7): 0.83 µM

The next lines start with results.

Row | IC50 (cyclin D1/cdk 4 enzyme; [1]) [µM] | IC50 (cyclin E/CDK2 enzyme; [2]) [µM] | IC50 (cyclin B/CDK1 enzyme; [3]) [µM] | melting point | SMILES | also measured
7 | 12.4 | 19.4 | 31.8 | 336 to 337 °C | O=C1NC(=O)c2ccc(Br)cc2/C1=C/Nc1ccc(O)c(C(=O)O)c1 [Example 58, 5-{[(Z)-(6-Bromo-1,3-dioxo-2,3-dihydroisoquinolin-4(1H)-ylidene)methyl]amino}-2-hydroxybenzoic acid] | –
8 | 31.1 | 4.5 | > 50 | 296 to 297 °C | O=C1NC(=O)c2ccc(Br)cc2/C1=C/NCc1ccc(O)cc1 [Example 62] | –
9 | 43.4 | 11 | > 50 | > 300 °C (dec.) | O=C1NC(=O)c2ccc(Br)cc2C1=CNc1ccc(-c2c[nH]cn2)cc1 [Example 164, 6-Bromo-4-{[4-(1H-imidazol-4-yl)-phenylamino]-methylene}-4H-isoquinolin-1,3-dione] | –
10 | 12.3 | > 50 | > 50 | 233 to 234 °C | CCCOc1ccc(CN/C=C2\C(=O)NC(=O)c3ccc(NC(=O)c4ccco4)cc32)cc1O [Example 197] | –
11 | 0.31 | – | > 50 | 195 to 196 °C | O=C1NC(=O)c2ccc(-c3ccc(F)cc3)cc2/C1=C/Nc1ccc(CN2CCCCC2)cc1 [Example 251, (4Z)-6-(4-Fluorophenyl)-4-({[4-(piperidin-1-′ylmethyl)phenyl]amino}methylene)isoquinoline-1,3(2H,4H)-dione] | IC50 (BT474; BT474 cells, SRB, 6 days): 1.1 µM; IC50 (HCT-116; HCT116 cells, SRB, three days): 1 µM; IC50 (LoVo; LoVo cells, SRB, three days): 1.7 µM; IC50 (MCF-7; MCF-7 cells, SRB, three days): 0.55 µM
12 | 35.5 | 39.7 | > 50 | 250 to 253 °C | CC(N)(C(=O)O)c1ccc(NC=C2C(=O)NC(=O)c3ccc(Br)cc32)cc1 (stereo not drawn) [Example 277, 2-Amino-2-{4-[(6-bromo-1,3-dioxo-2,3-dihydro-1H-isoquinolin-4-ylidenemethyl)-amino]-phenyl}-propionic acid] | –
